Measurements from patent US11249071B2, “Reactivation of x chromosome genes” (CALIFORNIA INSTITUTE OF TECHNOLOGY, priority 2015, dated 2022).
Entries after “also recorded” stand apart in the source; their conditions may differ.

Test system: MLF cells having silenced X genes
Test: X-chromosome reactivation assay (single molecule RNA FISH) in MLF cells treated with inhibitors
Assay type: cell-based
Settings: mouse MLF cells, HDAC3 inhibitor alone (Scriptaid 100 nM), 48 hours, FIGS. 7A-7B
Experimental: 5,000 Mouse MLF cells were plated on a poly-D-lysine (Sigma) and 0.2% gelatin (Sigma)-coated #1.5 coverslip placed into wells of a 24-well plate containing HEK media (DMEM, 10% Gemini Benchmark FBS, 1×L-glutamine, 1× sodium pyruvate, 1×NEAA, 1× Pen/Strep; Life Technologies unless otherwise indicated). After 16 hours, inhibitors were added into the media and incubated the cells for 48 hours. The inhibitors and the concentration used were: 5-Azacytidine (6 μM; Sigma, A2385), 5-Aza-2′-deoxycytidine ([…]; Sigma, A3656), RG 108 (200 μM; Abcam, ab141013), Trichostatin A (5 μM; Sigma, T8552), and Scriptaid (100 nM; Sigma, S7817).
Coverslips from siRNA transfection or inhibitor treatment were fixed in Histochoice (Sigma) for 10 min, washed thoroughly in PBS, and dehydrated in ethanol for storage until FISH staining. Single molecule RNA Fluorescence in situ hybridization (FISH) experiments were done using QuantiGene ViewRNA ISH Cell Assay (Affymetrix) and QuantiGene ViewRNA ISH Cell 740 Module (Affymetrix) according to manufacturer's protocol. […]
Cells were stained for target mRNAs and siRNA-targeted mRNA by FISH and imaged. Images were then analyzed using Matlab R2013b (described below). […] Within these cells, the copy number of target mRNAs were quantified using a peak finding method (described below) and compared across conditions. The mRNA levels were quantified for 50 individual cells. […]

`O=C(CCCCCN1C(=O)c2cccc3cccc(c23)C1=O)NO` [Scriptaid] was tested, and the “expression / reactivation of the Xist-dependent silenced Gpc4 gene, measured by levels of Gpc4 mRNA” value was “resulting in expression of Gpc4; also recorded: resulting in the reactivation of the Xist-dependent silent Gpc4 gene”.
